Measured values from the supplement of paper PMC10307832.

Tests used:
Assay in all cases: relative viability (nuclei count vs DMSO), 5 days (fraction); higher = more cells survive
[1] = compound: C1=CC2=C(C=C(C(=C2N=C1)O)N=NC3=CC4=C(C=C3)C=C(C=C4)S(=O)(=O)O)S(=O)(=O)O + O=C(c1cc(Cc2n[nH]c(=O)c3ccccc23)ccc1F)N1CCN(C(=O)C2CC2)CC1 [Olaparib] (partner 8 µM)
Method in brief: (§1)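 Lung cancer cell lines, seeded in 1536-well plates, were treated the following day by pin tool with a single drug or with five library-drug doses (not always all listed) in √10 steps on top of a fixed anchor-drug dose. Cells were fixed and nuclei stained in one step after 5 days, and nuclei were counted. Relative viability is the nuclei count for treated wells divided by that for vehicle wells, reported as medians of duplicate plates.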

[2] = compound: C1=CC2=C(C=C(C(=C2N=C1)O)N=NC3=CC4=C(C=C3)C=C(C=C4)S(=O)(=O)O)S(=O)(=O)O + Cc1cc(Nc2cc(N3CCN(C)CC3)nc(Sc3ccc(NC(=O)C4CC4)cc3)n2)n[nH]1 [Tozasertib] (partner 0.1 µM)
Method in brief: as §1

[3] = compound: C1=CC2=C(C=C(C(=C2N=C1)O)N=NC3=CC4=C(C=C3)C=C(C=C4)S(=O)(=O)O)S(=O)(=O)O + CS(=O)(=O)CCNCc1ccc(-c2ccc3ncnc(Nc4ccc(OCc5cccc(F)c5)c(Cl)c4)c3c2)o1 [Lapatinib] (partner 2 µM)
Method in brief: as §1

[4] = compound: C1=CC2=C(C=C(C(=C2N=C1)O)N=NC3=CC4=C(C=C3)C=C(C=C4)S(=O)(=O)O)S(=O)(=O)O + CC(C)C[C@H](NC(=O)[C@H](Cc1ccccc1)NC(=O)c1cnccn1)B(O)O [Bortezomib] (partner 0.002 µM)
Method in brief: as §1

Row | Cell Line | relative viability ([1]; first compound 0.08 µM) | relative viability ([1]; first compound 0.253 µM) | relative viability ([1]; first compound 0.8 µM) | relative viability ([1]; first compound 2.53 µM) | relative viability ([1]; first compound 8 µM) | relative viability ([2]; first compound 0.08 µM) | relative viability ([2]; first compound 0.253 µM) | relative viability ([2]; first compound 0.8 µM) | relative viability ([2]; first compound 2.53 µM) | relative viability ([2]; first compound 8 µM) | relative viability ([3]; first compound 0.08 µM) | relative viability ([3]; first compound 0.253 µM) | relative viability ([3]; first compound 0.8 µM) | relative viability ([3]; first compound 2.53 µM) | relative viability ([3]; first compound 8 µM) | relative viability ([4]; first compound 0.08 µM) | relative viability ([4]; first compound 0.253 µM) | relative viability ([4]; first compound 0.8 µM) | relative viability ([4]; first compound 2.53 µM) | relative viability ([4]; first compound 8 µM)
1 | NCI-H2342 | 0.476 | 0.466 | 0.452 | 0.462 | 0.711 | 0.52 | 0.576 | 0.566 | 0.465 | 0.569 |  |  |  |  |  |  |  |  |  | 
2 | HCC-15 | 0.879 | 0.682 | 0.714 | 0.698 | 0.727 | 0.462 | 0.458 | 0.422 | 0.441 | 0.45 | 0.963 | 0.841 | 0.843 | 0.832 | 0.888 | 1.16 | 1.02 | 1.02 | 0.985 | 0.992
3 | A-427 | 0.727 | 0.763 | 0.709 | 0.825 | 0.736 | 0.235 | 0.216 | 0.207 | 0.239 | 0.252 | 1.16 | 0.825 | 0.974 | 1.05 | 1.1 | 0.956 | 1.02 | 0.981 | 1.04 | 0.966
4 | NCI-H2228 | 0.779 | 0.772 | 0.658 | 0.851 | 0.751 | 0.264 | 0.269 | 0.279 | 0.233 | 0.295 | 0.966 | 1.29 | 0.986 | 1.21 | 1.06 | 1.17 | 1.01 | 0.917 | 1.01 | 0.96
5 | NCI-H1734 | 0.609 | 0.588 | 0.697 | 0.642 | 0.624 | 0.263 | 0.249 | 0.261 | 0.289 | 0.238 | 1.13 | 1.03 | 1.05 | 0.911 | 1.09 | 1.07 | 0.885 | 0.863 | 1.09 | 0.978
6 | PC-14 | 0.249 | 0.275 | 0.29 | 0.272 | 0.246 | 0.607 | 0.574 | 0.55 | 0.646 | 0.594 | 0.369 | 0.333 | 0.322 | 0.357 | 0.329 | 0.923 | 0.839 | 0.906 | 0.888 | 0.856
7 | NCI-H1915 | 0.25 | 0.286 | 0.256 | 0.258 | 0.258 | 0.471 | 0.445 | 0.463 | 0.436 | 0.437 | 1.06 | 1.01 | 1 | 0.883 | 1.02 | 1.02 | 0.957 | 0.92 | 0.892 | 0.935
8 | NCI-H1666 | 0.863 | 0.754 | 0.762 | 0.745 | 0.712 | 0.621 | 0.628 | 0.609 | 0.657 | 0.434 | 0.768 | 0.606 | 0.473 | 0.718 | 0.618 | 0.874 | 0.658 | 0.799 | 0.859 | 0.658
9 | HCC-366 | 0.432 | 0.402 | 0.335 | 0.361 | 0.319 | 0.152 | 0.0806 | 0.188 | 0.113 | 0.125 | 1.13 | 0.954 | 1.03 | 1.02 | 1.02 | 1.03 | 1.03 | 1.02 | 1.13 | 0.985
10 | SK-MES-1 | 0.793 | 0.703 | 0.609 | 0.691 | 0.707 | 1.01 | 0.888 | 0.804 | 0.924 | 0.935 | 0.482 | 0.444 | 0.468 | 0.464 | 0.546 |  |  |  |  | 
11 | SW 1573 | 0.574 | 0.413 | 0.523 | 0.483 | 0.29 | 0.164 | 0.185 | 0.187 | 0.181 | 0.0943 | 1.05 | 1 | 1.04 | 1.14 | 0.353 | 0.931 | 1.02 | 1.04 | 0.976 | 1.03
12 | NCI-H661 | 0.744 | 0.744 | 0.831 | 0.761 | 0.72 | 0.333 | 0.347 | 0.341 | 0.369 | 0.343 | 0.541 | 0.49 | 0.431 | 0.626 | 0.49 | 0.838 | 0.838 | 0.769 | 0.829 | 0.809
13 | PC-3 [JPC-3] | 1.31 | 1.15 | 1.17 | 1.14 | 1.09 | 0.963 | 0.848 | 0.846 | 0.856 | 0.864 | 0.483 | 0.474 | 0.484 | 0.445 | 0.426 | 0.908 | 0.849 | 0.768 | 0.794 | 0.851
14 | NCI-H1623 |  |  |  |  |  | 0.432 | 0.416 | 0.458 | 0.506 | 0.428 |  |  |  |  |  |  |  |  |  | 
15 | Calu-6 | 0.55 | 0.546 | 0.55 | 0.58 | 0.658 |  |  |  |  |  | 1.16 | 1.03 | 1.01 | 1.02 | 1.03 | 0.982 | 1.07 | 1.05 | 1.06 | 1.02
16 | LC-2-ad | 0.72 | 0.671 | 0.749 | 0.683 | 0.744 | 0.518 | 0.476 | 0.376 | 0.519 | 0.325 | 0.982 | 0.937 | 0.922 | 0.954 | 0.589 | 1.12 | 1.04 | 0.976 | 1.08 | 0.902
17 | CAL-12T | 0.85 | 0.678 | 0.648 | 0.681 | 0.74 | 0.29 | 0.34 | 0.378 | 0.327 | 0.296 | 0.593 | 0.58 | 0.629 | 0.63 | 0.663 | 0.843 | 0.914 | 0.788 | 0.979 | 1.03
